Values of other authors, collected in US20110257198A1, “PIPERIDINE DERIVATIVES USEFUL AS OREXIN ANTAGONISTS” (priority 2008, published 2011).
Ends that are not written are not given here.

Key:
freely-feeding rats = conditions: central administration, 4 hour time period
rat = conditions: central administration at the onset of the normal sleep period (Hagan et al 1999)
rats [1] = conditions: rats (White et al 2005)
rats [2] = conditions: rats (Nair et al 2008)

Row | Compound | increase of food intake over control rats receiving vehicle (freely-feeding rats) | effect on arousal (rat) | effect on hedonic eating (rats [1]) | effect on high-fat pellet self-administration (rats [2])
1 | orexin-A: polypeptide ligand for the orexin-1 receptor; an agonist of the orexin receptors (QPLPDCCRQKTCSCRLYELLHGAGNHAAGILTL; ends and bridges not checked; cysteine pairing not given here; UniProt O43612 34-66, looked up) | approximately four-fold | dose-related increase in arousal |  | 
2 | Cc1nc2ccc(NC(=O)Nc3ccnc4cccnc34)cc2o1 [SB334867] |  |  | potently reduced hedonic eating | attenuated high-fat pellet self-administration
